Experimental findings from ChEMBL document CHEMBL4800731, “Data for DCP probe JNJ-65355394” (2021) are described below.

Data set [1] is filed under the species Rattus norvegicus. Nature of the data set: rNaCH Cerep panel.
Data set [2] addresses Sodium-dependent serotonin transporter (Homo sapiens, UniProt P31645). The data set can be described thus: h5HTT Cerep panel.
Data set [3] addresses Vasoactive intestinal polypeptide receptor 1 (Homo sapiens) (UniProt P32241). The data set can be described thus: hVPAC1 Cerep panel.
The species named for data set [4] is Rattus norvegicus. The data set can be described thus: rCLCH Cerep panel.
For data set [5], the target named is Alpha-2A adrenergic receptor (Rattus norvegicus) (UniProt P22909). Nature of the data set: rAa2 Cerep panel.
The target in data set [6] is D(1A) dopamine receptor (Homo sapiens) (UniProt P21728). Nature of the data set: hD1 Cerep panel.
Data set [7] deals with Cholecystokinin receptor type A (Homo sapiens) (UniProt P32238). The data set can be described thus: hCCKA Cerep panel.
The target of data set [8] is Histamine H2 receptor (Homo sapiens) (UniProt P25021). The note with it: Compound concentration 10.0 uM.
The target in data set [9] is Voltage-gated inwardly rectifying potassium channel KCNH2 (Homo sapiens, UniProt Q12809). The data set can be described thus: hERG Cerep panel. On the technique in general: hERG is a cardiac potassium channel; its block is linked to QT prolongation.
In data set [10] the target is Mu-type opioid receptor (Homo sapiens) (UniProt P35372). Nature of the data set: hOP3 Cerep panel.
Data set [11] is filed under the species Rattus norvegicus. The data set can be described thus: rGABA Cerep panel.
Data set [12] concerns the target Type-1 angiotensin II receptor (Homo sapiens) (UniProt P30556). Nature of the data set: hAT1 Cerep panel.
The nature of data set [13]: cML1 Cerep panel.
Data set [14] addresses 5-hydroxytryptamine receptor 2A (Homo sapiens) (UniProt P28223). Nature of the data set: h5HT2A Cerep panel.
Data set [15] concerns the target Sodium-dependent noradrenaline transporter (Homo sapiens) (UniProt P23975). The data set can be described thus: hNET Cerep panel.
In data set [16] the target is T1, 5-hydroxytryptamine receptor 1A (Homo sapiens) (UniProt P08908).
T1 sequence (whole entry): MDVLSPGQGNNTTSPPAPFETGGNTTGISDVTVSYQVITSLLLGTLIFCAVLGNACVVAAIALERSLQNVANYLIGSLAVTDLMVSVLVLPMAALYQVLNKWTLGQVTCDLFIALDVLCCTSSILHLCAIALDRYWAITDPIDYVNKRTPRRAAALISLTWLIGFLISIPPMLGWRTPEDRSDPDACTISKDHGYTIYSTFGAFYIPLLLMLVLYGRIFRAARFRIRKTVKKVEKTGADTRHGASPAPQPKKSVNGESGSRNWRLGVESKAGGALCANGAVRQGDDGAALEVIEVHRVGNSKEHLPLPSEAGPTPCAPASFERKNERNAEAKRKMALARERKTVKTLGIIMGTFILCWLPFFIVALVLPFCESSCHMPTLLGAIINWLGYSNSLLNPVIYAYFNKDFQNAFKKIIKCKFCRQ
Nature of the data set: h5HT1A Cerep panel.

Data set [17] has as its target Neurotensin receptor type 1 (Homo sapiens) (UniProt P30989). Nature of the data set: hNT1 Cerep panel.
Data set [18] concerns the target 5-hydroxytryptamine receptor 5A (Homo sapiens) (UniProt P47898). Nature of the data set: h5HT5A Cerep panel.
Data set [19] has as its target C-X-C chemokine receptor type 2 (Homo sapiens) (UniProt P25025). Nature of the data set: hBCXCR2 Cerep panel.
Data set [20] deals with Adenosine receptor A1 (Homo sapiens) (UniProt P30542). The data set can be described thus: hA1 Cerep panel.
In data set [21] the target is Vasopressin V1a receptor (Homo sapiens) (UniProt P37288). Nature of the data set: hV1a Cerep panel.
For data set [22], the species on record is Rattus norvegicus. The data set can be described thus: rSKCaCH Cerep panel.
The target in data set [23] is Galanin receptor type 2 (Homo sapiens) (UniProt O43603). Nature of the data set: hGAL2 Cerep panel.
Data set [24] deals with 5-hydroxytryptamine receptor 1B (Rattus norvegicus) (UniProt P28564). Nature of the data set: r5HT1B Cerep panel.
The target of data set [25] is Melanocortin receptor 4 (Homo sapiens) (UniProt P32245). The data set can be described thus: hMC4 Cerep panel.
In data set [26] the target is C-C chemokine receptor type 1 (Homo sapiens) (UniProt P32246). Nature of the data set: hCCR1 Cerep panel.
Data set [27] has as its target D(2) dopamine receptor (Homo sapiens) (UniProt P14416). Nature of the data set: hD2S Cerep panel.
The target of data set [28] is 5-hydroxytryptamine receptor 6 (Homo sapiens) (UniProt P50406). The data set can be described thus: h5HT6 Cerep panel.
For data set [29], the target named is T2, 5-hydroxytryptamine receptor 3A (Homo sapiens) (UniProt P46098).
T2 sequence (whole entry): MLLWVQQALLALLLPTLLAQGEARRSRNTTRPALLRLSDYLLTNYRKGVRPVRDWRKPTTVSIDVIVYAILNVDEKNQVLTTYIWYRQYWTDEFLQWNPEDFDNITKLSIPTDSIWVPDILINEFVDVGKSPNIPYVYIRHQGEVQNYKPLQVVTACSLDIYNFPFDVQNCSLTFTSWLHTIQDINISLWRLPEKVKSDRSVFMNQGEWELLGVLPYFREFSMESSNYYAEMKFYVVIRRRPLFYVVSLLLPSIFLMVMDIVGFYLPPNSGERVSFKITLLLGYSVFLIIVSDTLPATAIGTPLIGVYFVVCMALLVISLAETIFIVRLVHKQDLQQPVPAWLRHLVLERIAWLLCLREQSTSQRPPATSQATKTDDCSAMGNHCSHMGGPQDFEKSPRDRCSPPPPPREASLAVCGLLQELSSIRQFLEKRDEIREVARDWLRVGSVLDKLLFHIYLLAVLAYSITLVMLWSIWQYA
The data set can be described thus: h5HT3 Cerep panel.

Data set [30] addresses Histamine H2 receptor (Homo sapiens) (UniProt P25021). The data set can be described thus: hH2 Cerep panel.
For data set [31], the target named is Alpha-1A adrenergic receptor (Rattus norvegicus) (UniProt P43140). The data set can be described thus: rAa1 Cerep panel.
The target in data set [32] is Nociceptin receptor (Homo sapiens) (UniProt P41146). The data set can be described thus: hORL1 Cerep panel.
Data set [33] has as its target Substance-K receptor (Homo sapiens) (UniProt P21452). The data set can be described thus: hNK2 Cerep panel.
Data set [34] has as its target 5-hydroxytryptamine receptor 2B (Homo sapiens) (UniProt P41595). The data set can be described thus: h5HT2B Cerep panel.
Data set [35] has as its target Adenosine receptor A2a (Homo sapiens) (UniProt P29274). The data set can be described thus: hA2A Cerep panel.
The species entered for data set [36] is Rattus norvegicus. The data set can be described thus: rCaCH (nitrendipine) Cerep panel.
The target in data set [37] is Kappa-type opioid receptor (Rattus norvegicus) (UniProt P34975). The data set can be described thus: rOP2 Cerep panel.
Data set [38] addresses T3, Sodium-dependent dopamine transporter (Homo sapiens, UniProt Q01959). Nature of the data set: hDAT Cerep panel.
Data set [39] deals with Muscarinic acetylcholine receptor M5 (Homo sapiens) (UniProt P08912). The note with it: Compound concentration 10.0 uM.
The target in data set [40] is T3, Sodium-dependent dopamine transporter. Nature of the data set: GPCRScan assay: inhibition of DAT. On the set-up: radioligand conc. used [nm] 3.6 – 16.0, parental cells stable HEK.
Data set [41] deals with 5-hydroxytryptamine receptor 1E (Homo sapiens) (UniProt P28566). The note with it: Compound concentration 10.0 uM.
In data set [42] the target is Sigma intracellular receptor 2 (Homo sapiens, UniProt Q5BJF2). The data set can be described thus: GPCRScan assay: inhibition of Sigma 2. On the set-up: radioligand conc. used [nm] 5.0, parental cells HEKT.
Data set [43] addresses D(1A) dopamine receptor (Homo sapiens) (UniProt P21728). As to conditions: Compound concentration 10.0 uM.
Data set [44] concerns the target Sigma non-opioid intracellular receptor 1 (Homo sapiens, UniProt Q99720). Nature of the data set: GPCRScan assay: inhibition of Sigma 1. Also on record: radioligand conc. used [nm] 4.0 – 5.0, parental cells HEKT.

T3 sequence (Q01959 whole entry): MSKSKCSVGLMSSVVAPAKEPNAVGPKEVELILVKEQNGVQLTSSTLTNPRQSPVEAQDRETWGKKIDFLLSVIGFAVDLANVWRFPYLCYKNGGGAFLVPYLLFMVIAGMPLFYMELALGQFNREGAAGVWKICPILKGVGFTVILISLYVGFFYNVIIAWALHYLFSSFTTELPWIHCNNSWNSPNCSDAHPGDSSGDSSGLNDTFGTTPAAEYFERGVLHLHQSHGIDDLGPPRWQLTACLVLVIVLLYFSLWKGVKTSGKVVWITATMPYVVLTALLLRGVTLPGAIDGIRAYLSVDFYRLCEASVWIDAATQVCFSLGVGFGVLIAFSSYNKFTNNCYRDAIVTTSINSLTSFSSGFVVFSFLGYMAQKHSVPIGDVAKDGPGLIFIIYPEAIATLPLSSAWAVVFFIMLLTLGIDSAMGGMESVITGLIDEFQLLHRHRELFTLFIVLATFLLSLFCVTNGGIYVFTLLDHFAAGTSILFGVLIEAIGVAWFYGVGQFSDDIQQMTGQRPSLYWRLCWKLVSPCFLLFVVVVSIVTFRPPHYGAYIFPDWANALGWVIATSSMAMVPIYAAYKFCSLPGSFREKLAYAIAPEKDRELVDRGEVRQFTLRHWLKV
Chain of D(1A) dopamine receptor (Homo sapiens) (P21728 whole entry): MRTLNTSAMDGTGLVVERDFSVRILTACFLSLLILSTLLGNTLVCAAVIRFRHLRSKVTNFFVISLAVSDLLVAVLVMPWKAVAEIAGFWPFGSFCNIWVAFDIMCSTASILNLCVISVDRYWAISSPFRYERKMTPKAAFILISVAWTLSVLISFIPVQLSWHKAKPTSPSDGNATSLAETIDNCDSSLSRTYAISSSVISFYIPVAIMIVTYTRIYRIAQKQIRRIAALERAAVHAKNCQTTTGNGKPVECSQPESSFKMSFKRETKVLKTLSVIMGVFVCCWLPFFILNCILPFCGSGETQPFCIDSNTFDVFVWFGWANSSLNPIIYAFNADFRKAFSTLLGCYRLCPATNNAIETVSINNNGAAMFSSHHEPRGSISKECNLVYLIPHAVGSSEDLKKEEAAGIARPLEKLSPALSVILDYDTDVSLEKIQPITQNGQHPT
Chain of Sigma intracellular receptor 2 (Q5BJF2 whole entry): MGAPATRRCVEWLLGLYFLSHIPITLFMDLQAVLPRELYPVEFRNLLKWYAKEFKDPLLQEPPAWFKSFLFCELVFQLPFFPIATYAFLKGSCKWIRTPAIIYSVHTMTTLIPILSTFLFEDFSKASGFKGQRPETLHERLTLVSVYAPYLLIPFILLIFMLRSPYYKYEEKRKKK
Chain of Histamine H2 receptor (Homo sapiens) (P25021 whole entry): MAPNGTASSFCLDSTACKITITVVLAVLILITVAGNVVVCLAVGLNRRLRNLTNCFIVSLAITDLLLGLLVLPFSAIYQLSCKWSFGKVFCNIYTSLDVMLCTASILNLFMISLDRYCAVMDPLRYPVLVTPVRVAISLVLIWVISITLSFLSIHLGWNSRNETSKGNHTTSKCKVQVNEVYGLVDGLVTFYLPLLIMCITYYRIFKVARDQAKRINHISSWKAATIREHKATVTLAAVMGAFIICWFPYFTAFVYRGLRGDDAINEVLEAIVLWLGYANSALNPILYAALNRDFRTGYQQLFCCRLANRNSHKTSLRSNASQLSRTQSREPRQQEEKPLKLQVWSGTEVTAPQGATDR
Chain of Kappa-type opioid receptor (Rattus norvegicus) (P34975 whole entry): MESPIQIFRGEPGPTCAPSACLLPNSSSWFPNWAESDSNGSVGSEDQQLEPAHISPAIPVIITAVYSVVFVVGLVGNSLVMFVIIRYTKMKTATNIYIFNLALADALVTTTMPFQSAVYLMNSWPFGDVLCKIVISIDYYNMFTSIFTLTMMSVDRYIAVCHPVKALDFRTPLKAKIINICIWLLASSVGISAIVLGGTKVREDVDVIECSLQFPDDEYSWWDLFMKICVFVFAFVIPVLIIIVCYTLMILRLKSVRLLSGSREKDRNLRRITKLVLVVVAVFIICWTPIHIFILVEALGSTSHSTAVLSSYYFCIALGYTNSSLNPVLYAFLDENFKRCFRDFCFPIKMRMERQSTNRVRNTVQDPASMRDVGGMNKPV
Chain of 5-hydroxytryptamine receptor 5A (Homo sapiens) (P47898 whole entry): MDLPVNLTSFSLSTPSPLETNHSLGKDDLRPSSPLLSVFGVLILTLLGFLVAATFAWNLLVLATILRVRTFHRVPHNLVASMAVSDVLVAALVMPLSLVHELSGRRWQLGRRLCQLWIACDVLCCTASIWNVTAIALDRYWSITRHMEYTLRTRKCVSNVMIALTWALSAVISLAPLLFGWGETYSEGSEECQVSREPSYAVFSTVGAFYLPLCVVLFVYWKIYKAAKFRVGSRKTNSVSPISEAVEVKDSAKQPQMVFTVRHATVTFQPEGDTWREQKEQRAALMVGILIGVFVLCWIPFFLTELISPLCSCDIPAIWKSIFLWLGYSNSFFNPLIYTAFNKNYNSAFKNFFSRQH
Chain of Galanin receptor type 2 (Homo sapiens) (O43603 whole entry): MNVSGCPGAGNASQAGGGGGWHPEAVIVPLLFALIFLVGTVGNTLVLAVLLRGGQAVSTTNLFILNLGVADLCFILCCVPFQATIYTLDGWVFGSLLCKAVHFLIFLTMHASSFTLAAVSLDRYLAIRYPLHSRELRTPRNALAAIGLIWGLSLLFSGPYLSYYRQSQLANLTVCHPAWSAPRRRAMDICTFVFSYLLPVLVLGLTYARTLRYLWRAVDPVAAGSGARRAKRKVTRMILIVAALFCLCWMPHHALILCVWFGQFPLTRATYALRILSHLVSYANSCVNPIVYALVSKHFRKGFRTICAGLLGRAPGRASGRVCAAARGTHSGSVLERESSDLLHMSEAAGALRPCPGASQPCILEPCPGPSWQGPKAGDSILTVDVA
Chain of D(2) dopamine receptor (Homo sapiens) (P14416 whole entry): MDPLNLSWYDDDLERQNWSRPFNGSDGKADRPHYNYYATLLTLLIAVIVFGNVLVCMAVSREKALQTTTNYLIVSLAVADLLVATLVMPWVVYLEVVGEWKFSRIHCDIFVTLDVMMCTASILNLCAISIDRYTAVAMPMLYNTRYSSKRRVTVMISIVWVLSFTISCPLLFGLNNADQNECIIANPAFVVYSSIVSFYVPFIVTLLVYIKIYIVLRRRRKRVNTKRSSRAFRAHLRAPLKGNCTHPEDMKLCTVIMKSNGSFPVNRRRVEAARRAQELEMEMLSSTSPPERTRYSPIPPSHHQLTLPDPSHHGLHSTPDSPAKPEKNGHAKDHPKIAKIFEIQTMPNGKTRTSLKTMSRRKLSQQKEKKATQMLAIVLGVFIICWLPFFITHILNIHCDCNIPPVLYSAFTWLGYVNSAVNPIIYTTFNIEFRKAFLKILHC
Chain of 5-hydroxytryptamine receptor 1B (Rattus norvegicus) (P28564 whole entry): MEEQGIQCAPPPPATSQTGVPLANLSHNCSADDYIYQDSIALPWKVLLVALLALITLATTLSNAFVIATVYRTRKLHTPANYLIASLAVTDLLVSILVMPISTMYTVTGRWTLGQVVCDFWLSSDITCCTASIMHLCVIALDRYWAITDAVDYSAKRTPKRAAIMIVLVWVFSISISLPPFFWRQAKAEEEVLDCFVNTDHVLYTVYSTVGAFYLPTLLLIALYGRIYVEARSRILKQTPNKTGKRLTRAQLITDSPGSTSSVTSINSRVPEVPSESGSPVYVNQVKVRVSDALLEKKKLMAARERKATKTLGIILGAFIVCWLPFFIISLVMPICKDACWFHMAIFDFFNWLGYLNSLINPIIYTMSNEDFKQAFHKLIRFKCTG
Chain of Voltage-gated inwardly rectifying potassium channel KCNH2 (Q12809 whole entry): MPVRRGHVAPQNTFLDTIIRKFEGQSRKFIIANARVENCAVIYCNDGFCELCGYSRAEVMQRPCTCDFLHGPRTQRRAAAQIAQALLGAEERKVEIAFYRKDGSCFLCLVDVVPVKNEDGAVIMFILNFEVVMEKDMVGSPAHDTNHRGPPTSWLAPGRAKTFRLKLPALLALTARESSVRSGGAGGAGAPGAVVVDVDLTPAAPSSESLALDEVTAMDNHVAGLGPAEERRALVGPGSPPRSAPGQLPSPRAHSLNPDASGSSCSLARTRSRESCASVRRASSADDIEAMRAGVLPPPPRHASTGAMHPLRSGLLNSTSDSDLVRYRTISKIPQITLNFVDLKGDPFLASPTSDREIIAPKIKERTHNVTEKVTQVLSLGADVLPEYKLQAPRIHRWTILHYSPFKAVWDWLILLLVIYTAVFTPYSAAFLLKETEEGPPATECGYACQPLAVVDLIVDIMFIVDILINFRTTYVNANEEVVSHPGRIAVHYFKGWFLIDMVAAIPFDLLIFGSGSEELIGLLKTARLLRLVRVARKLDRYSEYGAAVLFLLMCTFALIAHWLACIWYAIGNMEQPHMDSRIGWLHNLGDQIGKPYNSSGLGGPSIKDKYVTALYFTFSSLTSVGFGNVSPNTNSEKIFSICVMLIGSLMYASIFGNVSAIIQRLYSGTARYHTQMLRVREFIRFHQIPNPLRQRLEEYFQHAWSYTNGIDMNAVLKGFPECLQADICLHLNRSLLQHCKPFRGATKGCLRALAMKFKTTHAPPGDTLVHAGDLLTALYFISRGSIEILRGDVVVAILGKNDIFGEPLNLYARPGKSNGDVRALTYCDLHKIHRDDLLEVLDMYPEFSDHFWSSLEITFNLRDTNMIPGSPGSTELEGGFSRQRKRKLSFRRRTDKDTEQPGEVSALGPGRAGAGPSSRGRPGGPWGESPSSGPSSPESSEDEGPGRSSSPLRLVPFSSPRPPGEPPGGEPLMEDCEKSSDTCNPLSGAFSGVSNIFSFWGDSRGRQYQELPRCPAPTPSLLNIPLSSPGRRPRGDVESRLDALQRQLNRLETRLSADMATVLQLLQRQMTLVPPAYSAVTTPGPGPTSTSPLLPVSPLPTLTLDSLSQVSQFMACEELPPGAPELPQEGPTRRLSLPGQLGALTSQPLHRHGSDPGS
Chain of Sigma non-opioid intracellular receptor 1 (Q99720 whole entry): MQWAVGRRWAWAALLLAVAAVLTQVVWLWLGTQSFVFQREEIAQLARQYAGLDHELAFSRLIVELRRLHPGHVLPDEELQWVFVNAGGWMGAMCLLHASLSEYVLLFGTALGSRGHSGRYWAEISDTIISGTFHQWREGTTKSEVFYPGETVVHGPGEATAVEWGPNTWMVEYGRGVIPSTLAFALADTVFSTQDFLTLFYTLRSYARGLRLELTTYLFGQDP

With `CC(=O)Nc1ncc(CN2CCC[C@H](Cc3cc(C)nc(C)c3)C2)s1` [JNJ-65355394], the effect in the data set listed under Rattus norvegicus [1] is 1.6%; in data set [2], -7.05%; in data set [3] it was -10.1%; in the data set filed under Rattus norvegicus [4], -5.7%; in data set [5] it was 69%; in [6], 20.1%. Further, the effect was -22% in [7]; 10% in data set [9]; 55.4% in data set [10]; -9.8% in the data set listed under Rattus norvegicus [11]; -3.05% in data set [12]; 11.5% in data set [13]. Further, the effect in data set [14] is 4.1%; in [15], 5.75%; in data set [16], 9.45%; in [17], 4.15%; in [18], -7.65%; in [19], 0.85%. The effect was -13.2% in data set [20]; 7.65% in data set [21]; 35.4% in the data set filed under Rattus norvegicus [22]; 1.4% in data set [23]; -9.65% in data set [24]; 1.3% in data set [25]. In addition, the effect in data set [26] is -1.85%; in data set [27], 10.5%; in data set [28], 14.2%; in data set [29] it was 1.85%; in data set [30], 11.4%; in [31] it was 19.5%. Moreover, the effect in data set [32] was -5.7%; in data set [33], 4.5%; in [34], 6.3%; in data set [35], 4.9%; in the data set listed under Rattus norvegicus [36] it was 14%; in data set [37] it was 77.8%. Besides, the effect in data set [38] is 19.3%. Further, the inhibition in data set [8] was 3.45%.
Regarding `CC(=O)Nc1nc(CN2CCC[C@H](Cc3cc(C)nc(C)c3)C2)cs1` [JNJ-73924149], the inhibition in data set [39] is -6.15%; in data set [41], 0.93%; in [43], 10.7%. The Ki in [40] (read-out: Ki) was 5.28 µM; in data set [40] (read-out: pKi (converted)), 5.25 µM; in data set [42] (read-out: Ki) it was 1400 nM; in data set [42] (read-out: pKi (converted)), 1350 nM; in [44], 63.3 nM.

Usually inhibition stands for the drop in the measured response relative to a control, in per cent.
